# Experimental data reported in patent publication US20110014216A1, “Drug Transfer Based on Coenzyme A and Acyl Carrier Protein” (COVALYS B[…], priority 2007, published 2011).
# System: fusion protein ACP-FRB
# Experiment: in vitro protein trimer formation with ACP-FRB, ACP synthase, SDS-PAGE
# Type: biochemical
# Details: FRB protein fused to ACP tag, ACP synthase enzyme, overnight incubation at 4° C., coomassie stained
# Method: A solution of maleimide derivative (34) (1.4 mg, 1 eq, 1.3 μmol) in DMF (0.7 mL) is added to a solution of CoA-SH (3.5 mg, 3.3 eq, 4.3 μmol) in Tris buffer (pH 7.5, 100 μL). The reaction mixture is shaken overnight at 31° C. The solvent is removed under vacuum and the crude mixture is purified via preparative HPLC. The structural ability of compound (35) to trigger the formation of a protein trimer is confirmed by in vitro experiments using the fusion protein ACP-FRB. 12.5 μL of a 48.5 μM solution of FRB protein fused to the ACP tag (Covalys) is mixed with 0.5 μL of a 0.2 mM solution of compound (35), 2.5 μL of a solution of [500 mM Tris-HCl pH 7.5; 1500 mM NaCl; 100 mM MgCl2], 9.5 μL of double distilled water and 0.5 μl of ACP synthase enzyme (available from Covalys). Following overnight incubation at 4° C., 5 μL of a solution of 100 mM Tris-HCl pH 6.8; 2% SDS; 35% glycerol; 10 mM EDTA; 20 mM DTT is added. The mixture is boiled for 5 min at 95° C. After cooling to rt, 30 μL of this solution is loaded on a 4-20% linear gradient SDS-PAGE gel. After electrophoresis, the proteins are coomassie stained in gel to visualize protein trimer.
structure (smiles),measurement,value
"CCN(CC)c1ccc2nc3c4cc(OCC(=O)NC(COCCC(=O)NCCN5C(=O)CC(SCCNC(=O)CCNC(=O)[C@H](O)C(C)(C)COP(=O)([O-])OP(=O)([O-])OC[C@H]6O[C@@H](n7cnc8c(N)ncnc87)C(O)C6OP(=O)(O)O)C5=O)(COCCC(=O)NCCN5C(=O)CC(SCCNC(=O)CCNC(=O)[C@H](O)C(C)(C)COP(=O)([O-])OP(=O)([O-])OC[C@H]6O[C@@H](n7cnc8c(N)ncnc87)C(O)C6OP(=O)(O)O)C5=O)COCCC(=O)NCCN5C(=O)CC(SCCNC(=O)CCNC(=O)[C@H](O)C(C)(C)COP(=O)([O-])OP(=O)([O-])OC[C@H]6O[C@@H](n7cnc8c(N)ncnc87)C(O)C6OP(=O)(O)O)C5=O)ccc4c(=O)cc-3oc2c1.[Na+].[Na+].[Na+].[Na+].[Na+].[Na+] (stereo partly shown) [Compound 35, N-Tris-{[2-(2-(2-(CoA-S)-succinimido)ethylaminocarbonyl)ethoxy]-methyl}methyl nile red-oxyacetamide]",structural ability to trigger the formation of a protein trimer,confirmed
